Experimental data: patent publication US9550763B2, “Heterocyclic ring and carbocyclic derivative” (Shionogi & Co., Ltd., priority 2012, dated 2017)

Key:
Format in all cases: cell-based
human P2X3 receptor [1] = biological target: T1, human P2X3 receptor (Homo sapiens (Human), UniProt P56373); experiment: Evaluation of human P2X3 receptor inhibitory activity (Test Example 1-1, FDSS 3000, 96-well, 50 nM ATP); conditions: human P2X3 receptor in C6BU-1 cells; Test Example 1-1 (compounds I-001 to I-300)
T1 sequence (P56373 whole entry): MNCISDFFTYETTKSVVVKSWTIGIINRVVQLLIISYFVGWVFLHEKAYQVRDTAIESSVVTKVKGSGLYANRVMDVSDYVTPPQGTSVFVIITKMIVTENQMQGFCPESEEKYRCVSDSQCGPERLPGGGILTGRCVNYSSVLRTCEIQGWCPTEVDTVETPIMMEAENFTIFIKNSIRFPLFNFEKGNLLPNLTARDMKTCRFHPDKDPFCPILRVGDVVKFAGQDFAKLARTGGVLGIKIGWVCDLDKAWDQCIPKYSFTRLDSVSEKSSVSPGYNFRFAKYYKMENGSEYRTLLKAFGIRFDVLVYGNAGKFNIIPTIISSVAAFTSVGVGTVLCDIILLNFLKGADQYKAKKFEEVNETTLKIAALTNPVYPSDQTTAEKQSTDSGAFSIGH
In short: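 C6BU-1 cells stably expressing human P2X3, loaded with 4 μM Fluo-3-AM (pH 7.5), preincubated 5 min with compound before 50 nM ATP challenge; fluorescence followed 4 min on FDSS 3000. IC50 derived from peak/baseline fluorescence ratio, no-compound as 0% and buffer-instead-of-ATP as 100% inhibition.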

Rat P2X3 receptor = Rat P2X3 receptor (Rattus norvegicus (Rat), UniProt P49654); experiment: Evaluation of rat P2X3 receptor inhibitory activity in the presence of rat serum albumin (RSA) (Test Example 3-2); conditions: rat P2X3 receptor in C6BU-1 cells
Rat P2X3 receptor, sequence (P49654 whole entry): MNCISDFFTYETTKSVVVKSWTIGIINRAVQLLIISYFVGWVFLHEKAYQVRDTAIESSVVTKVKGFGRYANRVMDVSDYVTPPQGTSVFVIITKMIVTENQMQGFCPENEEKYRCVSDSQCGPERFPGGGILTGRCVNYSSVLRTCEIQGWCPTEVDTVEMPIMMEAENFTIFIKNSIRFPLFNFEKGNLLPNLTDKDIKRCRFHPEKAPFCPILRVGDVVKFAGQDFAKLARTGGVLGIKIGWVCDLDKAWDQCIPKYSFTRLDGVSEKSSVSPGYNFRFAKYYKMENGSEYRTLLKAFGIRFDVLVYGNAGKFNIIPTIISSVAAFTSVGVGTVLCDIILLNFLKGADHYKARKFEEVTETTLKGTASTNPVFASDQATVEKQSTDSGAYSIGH
Procedure: Rat P2X3 receptor gene (GenBank accession number NM_031075) was expressed in C6BU-1 cell. The C6BU-1 cells were seeded in a 96-well microtiter plate at a concentration of 2500 cells/well and cultured in the medium (7.0% fetal bovine serum, 7.0% horse serum, and 1% antibiotic and antifungal in DMEM) for one day at 37° C. under 5% carbon dioxide atmosphere. The plasmid was transfected into the cells using transfection reagent FuGENEG (Roche). The transfected cells were cultured in the medium for one day at 37° C. under 5% carbon dioxide atmosphere. The medium was replaced with 4 μM Fluo-3-AM solution (pH7.5) containing 20 mM HEPES, […], 5.27 mM KCl, 0.9 mM MgCl2, 1.26 mM CaCl2, 5.6 mM D-glucose, 2.5 mM probenecid, 1% BSA, and 0.08% Pluronic F-127, and incubated at 37° C. under 5% dioxide carbon atmosphere for one hour. The plate was washed with washing buffer (20 mM HEPES, 137 mM NaCl, 5.27 mM KCl, 0.9 mM MgCl2, 1.26 mM CaCl2, 5.6 mM D-glucose, 2.5 mM probenecid, pH7.5), and each well was added with 40 μL of this buffer. The plate was placed in High-Throughput Screening System FDSS 3000 (Hamamatsu Photonics K.K.). Measurement of fluorescence intensity by FDSS 3000 was started, and 40 μL of DMSO solutions containing 1% RSA (final concentrations) and different concentrations of the test compound as prepared by dilution with dilution buffer (20 mM HEPES, 137 mM NaCl, 5.27 mM KCl, 0.9 mM MgCl2, 1.26 mM CaCl2, 5.6 mM D-glucose, 2.5 mM probenecid, 0.1% Pluronic F-127, pH7.5) were dispensed to each well through the built-in automatic dispenser. Five minutes after, 50 nM ATP solution (50 μL) prepared by dilution with the dilution buffer was dispensed through the built-in automatic dispenser, and the measurement of fluorescence intensity was continued for 4 min. For each well, the specific maximum fluorescence intensity was calculated as the ratio of the maximum fluorescence intensity after addition of the ATP solution to the fluorescence intensity at the starting of the measurement. The 50% inhibitory concentration (IC50) was calculated under the assumption that the specific maximum fluorescence intensity without test compound is 0% inhibition and that the specific maximum fluorescence intensity when the dilution buffer was added in place of ATP solution is 100% inhibition, to evaluate the inhibitory activity of the test compound. FDSS software (Hamamatsu Photonics K.K.) was used for calculation of the specific maximum fluorescence intensity. IC50 was calculated using Microsoft Excel (Microsoft Corporation) and XLfit (idbs Ltd.).

human P2X3 receptor [2] = biological target: T1, human P2X3 receptor; experiment: Evaluation of human P2X3 receptor inhibitory activity (Test Example 1-2, FLIPR 384, 384-well, 150 nM ATP); conditions: human P2X3 receptor in C6BU-1 cells; Test Example 1-2 (compounds I-301 to I-483); read-out: P2X3 IC50
In short: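 Human P2X3 stably expressed in C6BU-1 cells, Fluo-3-AM loaded, read on FLIPR at pH 7.5 HEPES buffer. Compound added 5 min before 150 nM ATP; peak/baseline fluorescence over 4 min gave inhibition (buffer instead of ATP = 100%), from which IC50 was derived.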

Structure (SMILES) | IC50 (human P2X3 receptor [1]) | IC50 (Rat P2X3 receptor) | IC50 (human P2X3 receptor [2])
Cc1cc(/N=c2\[nH]cc(NC(=O)C3CCOCC3)c(=O)n2Cc2ccc(Cl)cc2)ccc1Oc1ncccc1F [Compound I-162] | 3 nM | 13 nM | 
Cc1noc(-c2c[nH]/c(=N\c3ccc(Oc4cccc(C(=O)O)n4)cc3)n(Cc3ccc(Cl)cc3)c2=O)n1 [Compound I-313] |  | 24 nM | 5 nM
Cc1nc(Nc2cc(=O)n([C@@H](C)[C@@H](C)C(=O)O)c(=O)n2Cc2ccc(Cl)cc2)ccc1Oc1ccc(F)nc1 [Compound I-339] |  | 12 nM | 9 nM
Cc1ccc(Oc2ccc(Nc3nc(=O)c(C(=O)NC4CCOCC4)cn3Cc3ccc(Cl)cc3)cc2)nn1 [Compound I-159] | 7 nM | 23 nM | 
N#Cc1cnc(Oc2ccc(Nc3nc(=O)c(C(=O)NC4CCOCC4)cn3Cc3ccc(Cl)cc3)cc2)cn1 [Compound I-230] | 9 nM | 10 nM | 
O=C(O)c1cc(Oc2ccc(/N=c3\[nH]cc(Nc4ccon4)c(=O)n3Cc3ccc(Cl)cc3)cc2)ccn1 [Compound I-354] |  | 14 nM | 7 nM
CCCn1c(=O)cc(Nc2ccc(Oc3cccc(C(=O)O)n3)cc2)n(Cc2ccc(Cl)cc2)c1=O [Compound I-165] | 3 nM | 17 nM | 
Cc1cc(Oc2ccc(/N=c3\[nH]cc(NC(=O)C4CCOCC4)c(=O)n3Cc3ccc(Cl)cc3)cc2C)no1 [Compound I-304] |  | 12 nM | 12 nM
Cc1ccc(Oc2ccc(/N=c3\[nH]cc(NC(=O)[C@H]4C[C@H](O)C4)c(=O)n3Cc3ccc(Cl)cc3)cc2)nn1 [Compound I-308] |  | 5 nM | 5 nM
CCC(=O)Nc1c[nH]/c(=N\c2ccc(Oc3ccc(C(N)=O)nn3)cc2)n(Cc2ccc(Cl)cc2)c1=O [Compound I-309] |  | 22 nM | 9 nM
O=c1c(NC(=O)[C@H]2C[C@H](O)C2)c[nH]/c(=N\c2ccc(Oc3ccc(F)cn3)cc2)n1Cc1ccc(Cl)cc1 [Compound I-215] | 4 nM | 5 nM | 
